Data: ChEMBL document CHEMBL5143725, “Optimization of TEAD P-Site Binding Fragment Hit into In Vivo Active Lead MSC-4106” (J Med Chem, 2022)
Calls of active or inactive are those of the source. The rule behind the calls is not given here.

What was measured:
[1] = Inhibition of YAP/TAZ-TEAD interaction in human SK-HEP1 cells incubated for 24 hrs by luciferase reporter gene assay; format: cell-based
[2] = target: T1, Transcriptional enhancer factor TEF-1 (Homo sapiens, UniProt P28347); assay: Binding affinity to human TEAD1 (209 to 426 residues) expressed in Escherichia coli BL21 Star (DE3) by surface plasmon resonance assay
T1 sequence (P28347 whole entry, the tested form may be a part): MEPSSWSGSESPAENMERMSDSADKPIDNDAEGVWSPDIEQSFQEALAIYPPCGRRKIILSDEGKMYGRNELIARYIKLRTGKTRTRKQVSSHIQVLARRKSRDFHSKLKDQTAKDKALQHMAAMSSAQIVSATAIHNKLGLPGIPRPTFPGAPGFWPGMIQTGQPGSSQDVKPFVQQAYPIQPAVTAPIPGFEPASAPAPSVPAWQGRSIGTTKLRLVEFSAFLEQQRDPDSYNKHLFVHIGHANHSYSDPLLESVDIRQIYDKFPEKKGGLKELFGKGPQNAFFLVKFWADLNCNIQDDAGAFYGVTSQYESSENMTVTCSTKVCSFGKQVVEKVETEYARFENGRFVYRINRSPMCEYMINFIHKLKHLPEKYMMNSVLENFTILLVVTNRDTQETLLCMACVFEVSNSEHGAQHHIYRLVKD

[3] = target: T2, Transcriptional enhancer factor TEF-4 (Homo sapiens, UniProt Q15562); assay: Binding affinity to human TEAD2 (217 to 447 residues) expressed in Escherichia coli BL21 Star (DE3) by surface plasmon resonance assay
T2 sequence (Q15562 whole entry, the tested form may be a part): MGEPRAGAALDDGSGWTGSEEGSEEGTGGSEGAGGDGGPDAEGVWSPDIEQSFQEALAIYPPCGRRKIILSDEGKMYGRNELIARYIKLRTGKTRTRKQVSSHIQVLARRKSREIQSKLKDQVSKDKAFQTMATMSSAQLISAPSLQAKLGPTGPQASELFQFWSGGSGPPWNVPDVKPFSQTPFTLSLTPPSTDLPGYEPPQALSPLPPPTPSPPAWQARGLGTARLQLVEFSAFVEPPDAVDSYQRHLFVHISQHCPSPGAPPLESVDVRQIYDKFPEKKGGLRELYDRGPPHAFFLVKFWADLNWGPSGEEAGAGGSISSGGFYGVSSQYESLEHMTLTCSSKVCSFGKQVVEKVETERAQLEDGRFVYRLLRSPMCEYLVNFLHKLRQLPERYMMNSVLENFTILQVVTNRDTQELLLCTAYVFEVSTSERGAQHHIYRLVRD

[4] = target: T3, Transcriptional enhancer factor TEF-5 (Homo sapiens, UniProt Q99594); assay: Binding affinity to human TEAD3 (216 to 435 residues) expressed in Escherichia coli BL21 Star (DE3) by surface plasmon resonance assay
T3 sequence (Q99594 whole entry, the tested form may be a part): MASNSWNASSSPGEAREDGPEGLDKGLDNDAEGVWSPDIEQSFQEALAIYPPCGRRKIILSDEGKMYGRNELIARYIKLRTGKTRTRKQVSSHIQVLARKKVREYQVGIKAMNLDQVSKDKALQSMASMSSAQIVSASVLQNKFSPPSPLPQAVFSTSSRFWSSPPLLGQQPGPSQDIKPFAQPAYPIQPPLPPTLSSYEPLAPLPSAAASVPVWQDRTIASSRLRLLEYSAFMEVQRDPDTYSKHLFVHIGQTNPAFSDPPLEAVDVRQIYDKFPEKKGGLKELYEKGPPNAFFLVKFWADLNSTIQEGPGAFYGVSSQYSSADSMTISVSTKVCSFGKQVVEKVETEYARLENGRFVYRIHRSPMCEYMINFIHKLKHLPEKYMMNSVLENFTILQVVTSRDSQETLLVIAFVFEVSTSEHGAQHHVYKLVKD

[5] = target: T4, Transcriptional enhancer factor TEF-3 (Homo sapiens, UniProt Q15561); assay: Binding affinity to human TEAD4 (217 to 434 residues) expressed in Escherichia coli BL21 Star (DE3) by surface plasmon resonance assay
T4 sequence (Q15561 whole entry, the tested form may be a part): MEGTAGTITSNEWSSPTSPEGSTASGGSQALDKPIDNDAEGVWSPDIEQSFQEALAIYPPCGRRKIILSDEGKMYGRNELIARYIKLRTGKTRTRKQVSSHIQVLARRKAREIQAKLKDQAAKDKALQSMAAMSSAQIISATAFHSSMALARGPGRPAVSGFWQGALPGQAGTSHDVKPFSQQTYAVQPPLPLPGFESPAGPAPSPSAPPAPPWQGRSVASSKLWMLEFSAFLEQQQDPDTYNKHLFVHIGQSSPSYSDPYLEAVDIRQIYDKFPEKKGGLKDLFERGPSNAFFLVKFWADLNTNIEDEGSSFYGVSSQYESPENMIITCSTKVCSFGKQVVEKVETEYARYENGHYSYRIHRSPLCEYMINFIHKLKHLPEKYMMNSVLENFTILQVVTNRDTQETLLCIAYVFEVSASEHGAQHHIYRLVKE

[6] = target: T1, Transcriptional enhancer factor TEF-1; assay: Binding affinity to human TEAD1 (209 to 426 residues) expressed in Escherichia coli BL21 Star (DE3) assessed as change in melting temperature incubated for 2 hrs by measuring tryptophane fluorescence by Nano Differential scanning fluorometry
[7] = target: T2, Transcriptional enhancer factor TEF-4; assay: Binding affinity to human TEAD2 (217 to 447 residues) expressed in Escherichia coli BL21 Star (DE3) assessed as change in melting temperature incubated for 2 hrs by measuring tryptophane fluorescence by Nano Differential scanning fluorometry
[8] = target: T3, Transcriptional enhancer factor TEF-5; assay: Binding affinity to human TEAD3 (216 to 435 residues) expressed in Escherichia coli BL21 Star (DE3) assessed as change in melting temperature incubated for 2 hrs by measuring tryptophane fluorescence by Nano Differential scanning fluorometry
[9] = target: T4, Transcriptional enhancer factor TEF-3; assay: Binding affinity to human TEAD4 (217 to 434 residues) expressed in Escherichia coli BL21 Star (DE3) assessed as change in melting temperature incubated for 2 hr by measuring tryptophane fluorescence by Nano Differential scanning fluorometry
[10] = target: T1, Transcriptional enhancer factor TEF-1; assay: Inhibition of pSF-CMV-P-FLAG tagged human TEAD1 palmitoylation transfected in HEK293 cells at 10 uM incubated for 6 hrs by Western blot analysis relative to control; format: cell-based
[11] = target: T2, Transcriptional enhancer factor TEF-4; assay: Inhibition of pSF-CMV-P-FLAG tagged human TEAD2 palmitoylation transfected in HEK293 cells at 10 uM incubated for 6 hrs by Western blot analysis relative to control; format: cell-based
[12] = target: T3, Transcriptional enhancer factor TEF-5; assay: Inhibition of pSF-CMV-P-FLAG tagged human TEAD3 palmitoylation transfected in HEK293 cells at 10 uM incubated for 6 hrs by Western blot analysis relative to control; format: cell-based
[13] = target: T4, Transcriptional enhancer factor TEF-3; assay: Inhibition of pSF-CMV-P-FLAG tagged human TEAD4 palmitoylation transfected in HEK293 cells at 10 uM incubated for 6 hrs by Western blot analysis relative to control; format: cell-based
[14] = target: T3, Transcriptional enhancer factor TEF-5; assay: Inhibition of pSF-CMV-P-FLAG tagged human TEAD3 palmitoylation transfected in HEK293 cells at 1 uM incubated for 6 hrs by Western blot analysis relative to control; format: cell-based
[15] = tested on: SW-620; assay: Cytotoxicity against YAP/TAZ knockout human SW620 cells assessed as cell viability measured for 4 days by celltiter-glo assay; details: SW-620, 96 h
[16] = Inhibition of cysteine-rich angiogenic inducer 61 expression in human SK-HEP1 cells incubated for 96 hrs by ELISA method; details: SK-HEP1, 96 h
[17] = Inhibition of connective tissue growth factor expression in human SK-HEP1 cells incubated for 96 hrs by ELISA method; details: SK-HEP1, 96 h
[18] = Inhibition of cysteine-rich angiogenic inducer 61 expression in human NCI-H226 cells incubated for 96 hrs by ELISA method; details: NCI-H226, 96 h
[19] = Inhibition of connective tissue growth factor expression in human NCI-H226 cells incubated for 96 hrs by ELISA method; details: NCI-H226, 96 h
[20] = tested on: NCI-H226; assay: In vivo antitumor activity against human NCI-H226 cells xenografted in mouse model assessed as tumor growth inhibition at 100 mg/kg, po qd measured after 32 days; format: functional, organism-based; details: time 32.0 day
[21] = target: T2, Transcriptional enhancer factor TEF-4; assay: Binding affinity to human TEAD2 (217 to 447 residues) expressed in Escherichia coli BL21 Star (DE3) assessed as change in melting temperature incubated for 2 hrs measuring scattering fluorescence by Nano Differential scanning fluorometry
[22] = target: T1, Transcriptional enhancer factor TEF-1; details: HEK293, dose 100.0 nM, time 6.0 hrs

**Q.** For `Cn1cc2c3cc(C(=O)O)ccc3n(-c3ccc(C(F)(F)F)cc3)c2n1`, which IC50 [1] is on record?
**A.** 4 nM

**Q.** And the Kd [2]?
**A.** 120 nM

**Q.** What about the Kd [3] of the same compound?
**A.** 4600 nM

**Q.** And the Kd [4]?
**A.** 1400 nM

**Q.** And the Kd [5]?
**A.** 5400 nM

**Q.** And the ΔTm [6]?
**A.** 13.4 °C

**Q.** And the ΔTm [7]?
**A.** -3.7 °C

**Q.** What about the ΔTm [8] of the same compound?
**A.** 5.1 °C

**Q.** And the ΔTm [9]?
**A.** 0.4 °C

**Q.** And the inhibition [10]?
**A.** 90%

**Q.** And the inhibition [11]?
**A.** 24%

**Q.** And the inhibition [12]?
**A.** 81%

**Q.** What about the inhibition [13] of the same compound?
**A.** 12%

**Q.** What about the inhibition [14] of the same compound?
**A.** 3.8%

**Q.** And the IC50 [15]?
**A.** > 30000 nM

**Q.** What about the IC50 [16] of the same compound?
**A.** 24 nM

**Q.** And the IC50 [17]?
**A.** 10 nM

**Q.** And the IC50 [18]?
**A.** 13 nM

**Q.** And the IC50 [19]?
**A.** 11 nM

**Q.** And the Activity [20]?
**A.** Active

**Q.** What about the ΔTm [21] of the same compound?
**A.** 3.7 °C

**Q.** What about the inhibition [22] of the same compound?
**A.** 55.7%
